Assay results taken from ChEMBL document CHEMBL3525989 (Drug Metab Dispos, 2011).

Tests used:
[1] = target: T1, Cytochrome P450 3A4 (Homo sapiens, UniProt P08684); test: Binding affinity to CYP3A4 (unknown origin); format: ADME; conditions: read-out: Ks
[2] = target: T1, Cytochrome P450 3A4; test: Inhibition of recombinant CYP3A4 (unknown origin) expressed in baculosomes assessed as decrease in CYP3A4-CO binding at 10 uM preincubated for 5 mins measured after […] by LC-tandem mass spectrometry analysis in presence of 1 mM NADPH; format: ADME; conditions: recombinant enzyme
[3] = target: T1, Cytochrome P450 3A4; test: (§1) Inhibition of recombinant CYP3A4 (unknown origin) expressed in baculosomes in presence of 1 mM NADPH; format: ADME
[4] = target: T2, CYP3A4 (Homo sapiens, UniProt P08684); test: as §1; format: ADME; conditions: human, recombinant CYP3A4 expressed in baculosomes
[5] = target: T2, CYP3A4; test: Inhibition of recombinant CYP3A4 (unknown origin) expressed in baculosomes assessed as enzyme remaining activity at 10 uM measured after 1.5 min in presence of 1 mM NADPH; format: ADME; conditions: read-out: Activity
[6] = target: T1, Cytochrome P450 3A4; test: Inhibition of recombinant CYP3A4 (unknown origin) expressed in baculosomes assessed as decrease in CYP3A4-CO binding at 10 uM preincubated for 5 mins measured after overnight washout with 100 mM potassium phosphate buffer by LC-tandem mass spectrometry analysis in presence of 1 mM NADPH; format: ADME; conditions: recombinant enzyme
[7] = target: T1, Cytochrome P450 3A4; test: Inhibition of recombinant CYP3A4 (unknown origin) expressed in baculosomes in presence of 1 mM NADPH and 1 mM nucleophilic trapping agent N-acetyl cysteine; format: ADME; conditions: recombinant enzyme
[8] = target: T1, Cytochrome P450 3A4; test: Inhibition of recombinant CYP3A4 (unknown origin) expressed in baculosomes in presence of 1 mM NADPH and 1 mM nucleophilic trapping agent superoxide dismutase; format: ADME; conditions: recombinant enzyme
[9] = target: T1, Cytochrome P450 3A4; test: Inhibition of recombinant CYP3A4 (unknown origin) expressed in baculosomes in presence of 1 mM NADPH and 1 mM nucleophilic trapping agent semicarbazide; format: ADME; conditions: recombinant enzyme
[10] = target: T2, CYP3A4; test: Residual activity of recombinant CYP3A4 (unknown origin) expressed in baculosomes at 10 uM measured after 1.5 min in presence of 1 mM NADPH
[11] = target: T1, Cytochrome P450 3A4; test: Inhibition of recombinant CYP3A4 (unknown origin) expressed in baculosomes in presence of 1 mM NADPH and 1 mM nucleophilic trapping agent dimethyl pyrroline N-oxide; format: ADME; conditions: recombinant enzyme
[12] = target: T1, Cytochrome P450 3A4; test: Inhibition of recombinant CYP3A4 (unknown origin) expressed in baculosomes in presence of 1 mM NADPH and 1 mM nucleophilic trapping agent glutathione; format: ADME; conditions: recombinant enzyme
[13] = target: T1, Cytochrome P450 3A4; test: Inhibition of recombinant CYP3A4 (unknown origin) expressed in baculosomes in presence of 1 mM NADPH and 1 mM nucleophilic trapping agent catalase; format: ADME; conditions: recombinant enzyme
[14] = target: T1, Cytochrome P450 3A4; test: Inhibition of recombinant CYP3A4 (unknown origin) expressed in baculosomes in presence of 1 mM NADPH and 1 mM nucleophilic trapping agent N-acetyl lysine; format: ADME; conditions: recombinant enzyme
[15] = target: T1, Cytochrome P450 3A4; test: Inhibition of recombinant CYP3A4 (unknown origin) expressed in baculosomes in presence of 1 mM NADPH and 1 mM nucleophilic trapping agent methyl hydroxylamine; format: ADME; conditions: recombinant enzyme
[16] = target: T1, Cytochrome P450 3A4; test: Inhibition of recombinant CYP3A4 (unknown origin) expressed in baculosomes in presence of 1 mM NADPH and 1 mM nucleophilic trapping agent potassium cyanide; format: ADME; conditions: recombinant enzyme

T1 sequence (P08684 whole entry): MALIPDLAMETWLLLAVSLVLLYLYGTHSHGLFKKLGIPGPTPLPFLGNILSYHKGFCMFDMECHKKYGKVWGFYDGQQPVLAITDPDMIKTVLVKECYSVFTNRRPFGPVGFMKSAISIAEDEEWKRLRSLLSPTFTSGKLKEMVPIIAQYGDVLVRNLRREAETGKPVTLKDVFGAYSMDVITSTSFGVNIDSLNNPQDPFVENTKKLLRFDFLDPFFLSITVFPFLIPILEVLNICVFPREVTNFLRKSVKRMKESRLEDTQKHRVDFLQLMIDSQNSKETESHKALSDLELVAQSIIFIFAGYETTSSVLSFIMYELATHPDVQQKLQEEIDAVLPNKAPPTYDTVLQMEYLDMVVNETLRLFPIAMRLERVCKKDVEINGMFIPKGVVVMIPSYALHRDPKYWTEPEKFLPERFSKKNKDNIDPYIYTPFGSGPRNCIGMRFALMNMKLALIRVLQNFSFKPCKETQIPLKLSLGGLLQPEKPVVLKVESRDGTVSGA
T2 sequence (P08684 whole entry): as above

Kd [1] [nM]	Ki [3] [nM]	kinact [4] [s⁻¹]	activity at 0.025 h, 10 µM [5] [%]	Structure (SMILES)	inhibition (INH) [2]	inhibition (INH) [6]	inhibition (INH) [7]	inhibition (INH) [8]	inhibition (INH) [9]	residual activity at 0.025 h, 10 µM [10] [%]	inhibition (INH) [11]	inhibition (INH) [12]	inhibition (INH) [13]	inhibition (INH) [14]	inhibition (INH) [15]	inhibition (INH) [16]
1390	820	0.00133	60	CC(C)[C@H]1c2ccc(F)cc2CC[C@]1(O)CCN(C)CCCc1nc2ccccc2[nH]1	Active	Active	–	–	–	–	–	–	–	–	–	–
–	–	–	–	COCC(=O)O[C@]1(CCN(C)CCCc2nc3ccccc3[nH]2)CCc2cc(F)ccc2[C@@H]1C(C)C [MIBEFRADIL]	Active	Active	Active	Active	Active	< 20	Active	Active	Active	Active	Active	Active
